Experimental data published in the NIST ThermoML archive (doi:10.1021/je060253t).
Values joined by “and” are separate entries in the source; they are usually repeats but may differ in a detail not shown here. Equal values may be shown once. Numbers after ± are expanded uncertainties.

Conditions: 313.15 K; Liquid; Closed cell (Static) method

| SMILES | vapor or sublimation pressure |
| --- | --- |
| CCCCCC [hexane] | 37.3 ± 0.14 kPa and 37.25 ± 0.14 kPa |
| COC(C)(C)C [2-methoxy-2-methylpropane] | 59.92 ± 0.21 kPa and 59.91 ± 0.21 kPa |
| CCCO [propan-1-ol] | 6.999 ± 0.038 kPa and 7.007 ± 0.038 kPa and 7 ± 0.038 kPa |
